We go through 3 compounds from patent US10933045B2, “Intranasal compositions for treatment of neurological and neurodegenerative diseases and disorders” (priority 2014, dated 2021).

One may read the Kd as the free concentration of one partner at which half of the binding sites on the other are occupied at equilibrium, for simple one-to-one binding. The Vz is the apparent volume that relates the amount in the body to the concentration in plasma or blood.

Data set [1] has as its target acetylcholinesterase (Homo sapiens, UniProt P22303). As to conditions: estimated (Gobburu et al. 2001); cited from earlier work.
The target of data set [2] is T1, sigma one receptor (Rattus norvegicus, UniProt Q9R0C9).
T1 construct: host or cells: rat brain
T1 sequence (Q9R0C9 whole entry): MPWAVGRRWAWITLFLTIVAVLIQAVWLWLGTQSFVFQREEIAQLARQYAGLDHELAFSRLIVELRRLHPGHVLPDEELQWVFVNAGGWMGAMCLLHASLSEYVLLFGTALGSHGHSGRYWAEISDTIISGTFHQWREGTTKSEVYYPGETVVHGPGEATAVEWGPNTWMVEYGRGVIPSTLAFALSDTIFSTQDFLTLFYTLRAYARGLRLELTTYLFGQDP
In words: Dextromethorphan binding studies with rat brain (Klein and Musacchio 1992).

Data set [3] deals with T1, sigma one receptor. As to conditions: read-out: dissociation constant (Kd); binding studies with rat brain; cited from earlier work.
The conditions of data set [4]: assumed value from literature; cited from earlier work.
The conditions of data set [5]: cited from earlier work.
[6] abbreviates: Alzheimer's disease patients, 2 mg i.v. dose (Hossain et al. 2002).

Where two headings read alike, the source gives them in different places.

acetylcholinesterase, sequence (P22303 32-614): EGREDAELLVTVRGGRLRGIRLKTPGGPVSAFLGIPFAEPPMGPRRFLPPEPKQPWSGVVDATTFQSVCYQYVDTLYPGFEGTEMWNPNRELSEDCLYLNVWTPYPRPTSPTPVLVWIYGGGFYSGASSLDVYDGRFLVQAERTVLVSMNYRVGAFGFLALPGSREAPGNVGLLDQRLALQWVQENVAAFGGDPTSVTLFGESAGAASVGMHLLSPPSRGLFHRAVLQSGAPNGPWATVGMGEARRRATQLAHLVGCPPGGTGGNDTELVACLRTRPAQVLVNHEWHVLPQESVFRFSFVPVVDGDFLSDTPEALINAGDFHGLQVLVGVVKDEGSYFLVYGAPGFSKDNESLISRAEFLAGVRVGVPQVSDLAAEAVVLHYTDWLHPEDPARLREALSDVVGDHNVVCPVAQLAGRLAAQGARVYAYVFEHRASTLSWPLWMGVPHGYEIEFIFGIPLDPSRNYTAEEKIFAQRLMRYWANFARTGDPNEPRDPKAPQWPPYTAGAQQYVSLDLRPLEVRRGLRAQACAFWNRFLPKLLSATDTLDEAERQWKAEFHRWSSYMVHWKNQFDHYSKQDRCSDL

Turning to `C[C@@H](c1cccc(O)c1)N(C)C` [NAP 226-90, 3-[(1S)-1-(dimethylamino)ethyl]phenol], in data set [1], the “potency, times less than rivastigmine” value is reported as 10 times.

As for `COc1ccc2c(c1)[C@]13CCCC[C@@H]1[C@H](C2)N(C)CC3` [dextromethorphan], the Kd was approximately 19.9 nM in data set [2] and 20 nM in data set [3]. Further, the systemic clearance entry in data set [4] is “about 23 mL/min/kg”.

For `CCN(C)C(=O)Oc1cccc([C@H](C)N(C)C)c1` [rivastigmine, Rivastigmine], the “variation of intrinsic clearance (CL)” value in data set [5] (Alzheimer's disease patients (Hossain et al. 2002)) is recorded as “up to 4 fold”. In data set [5] (setting [6]), the CL was 21.6 to 82.8 L/h and the Vz is 53.2 to 227 L.
